According to patent US5624923A, “Tricyclic diazepine vasopressin antagonists and oxytocin antagonists” (priority 1995, dated 1997):

Experiments:
[1] = biological target: T1, V1 Receptor Subtype in Human Platelet (Homo sapiens, UniProt P37288); experiment: Binding to Vasopressin V1 receptor subtype in Human Platelet Membranes; details: human platelet membranes
T1 construct: tissue Hudson Valley Blood Services, Westchester Medical Center, Valhalla, N.Y; host or cells: human platelets (frozen platelet rich plasma)
Procedure: Radioligand Binding Experiments with Human Platelet Membranes (a) Platelet Membrane Preparation: Frozen platelet rich plasma (PRP), (Platelet Source: Hudson Valley Blood Services, Westchester Medical Center, Valhalla, N.Y.) are thawed to room temperature. The tubes containing the PRP are centrifuged at 16,000×g for 10 min. at 4° C. and the supernatant fluid discarded. […] The suspension is recentrifuged at 16,000× g for 10 min. This washing step is repeated one more time. The wash discarded and the lysed pellets homogenized in low ionic strength buffer of Tris.HCl, 5.0 mM, pH 7.5 containing 5.0 mM EDTA. The homogenate is centrifuged at 39,000× g for 10 min. The resulting pellet is resuspended in Tris. […] The final pellet is resuspended in 50.0 mM Tris. HCl buffer pH 7.4 containing 120 mM NaCl and 5.0 mM KCl to give 1.0-2.0 mg protein per ml of suspension. […] Platelet Membranes […] Then add 20 μl of [^3 H]Ligand (Manning or […] Vasopressin), to give final concentrations ranging from 0.01 to 10.0 nM. Initiate the binding by adding 80.0 μl of platelet suspension (approx. 100 μg protein). Mix all reagents by pipetting the mixture up and down a few times. Non specific binding is measured in the presence of 1.0 μM of unlabeled ligand (Manning or […] Vasopressin). Let the mixture stand undisturbed at room temperature for ninety (90) min. Upon this time, rapidly filter off the incubate under vacuum suction over GF/B filters, using a Brandel Harvester. Determine the radioactivity caught on the filter disks by the addition of liquid scintillant and counting in a liquid scintillator.

[2] = biological target: T2, Human V2 Vasopressin Receptor (Homo sapiens, UniProt P30518); experiment: Binding to Membranes of Mouse Fibroblast Cell Line (LV-2) Transfected with the cDNA Expressing the Human V2 Vasopressin Receptor; details: LV-2 cell membranes, human V2; read-out: V2 IC50 (**)
T2 construct: expressed in transfected cells; host or cells: mouse fibroblast cell line LV-2
Procedure: Binding to Membranes of Mouse Fibroblast Cell Line (LV-2) Transfected with the cDNA Expressing the Human V2 Vasopressin Receptor
Flasks of 175 ml capacity, containing attached cells grown to confluence, are cleared of culture medium by aspiration. The flasks containing the attached cells are rinsed with 2×5 ml of phosphate buffered saline (PBS) and the liquid aspirated off each time. Finally, 5 ml of an enzyme free dissociation Hank's based solution (Specialty Media, Inc., Lafayette, N.J.) is added and the flasks are left undisturbed for 2 min. The content of all flasks is. poured into a centrifuge tube and the cells pelleted at 300× g for 15 min. The Hank's based solution is aspirated off and the cells homogenized with a polytron at setting #6 for 10 sec in 10.0 mM Tris.HCl buffer, pH 7.4 containing 0.25M sucrose and 1.0 mM EDTA. The homogenate is centrifuged at 1500× g for 10 min to remove ghost membranes. The supernatant fluid is centrifuged at 100,000× g for 60 min. to pellet the receptor protein. Upon completion, the pellet is resuspended in a small volume of 50.0 mM Tris. HCl buffer, pH 7.4. The protein content is determined by the Lowry method and the receptor membranes are suspended in 50.0 mM Tris.HCl buffer containing 0.1 mM phenylmethylsulfonylfluoride (PMSF) and 0.2% bovine serum albumin (BSA) to give 2.5 mg receptor protein per ml of suspension.
Arginine^8, vasopressin (S.A. 75.0 Ci/mmole) at 0.8 nM and the reaction initiated by the addition of 80.0 μl of tissue membranes (200.0 μg tissue protein). The plates are left undisturbed on the bench top for 120 min to reach equilibrium. Non specific binding is assessed in the presence of 1.0 μM of unlabeled ligand, added in 20 μl volume. For test compounds, these are solubilized in 50% dimethylsulfoxide (DMSO) and added in 20.0 μl volume to a final incubation volume of 200 μl. Upon completion of binding, the content of each well is filtered off, using a Brandel® cell Harvester (Gaithersburg, Md.). The radioactivity trapped on the filter disk by the ligand-receptor complex is assessed by liquid scintillation counting in a Packard LS Counter, with an efficiency of 65% for tritium. The data are analyzed for IC50 values by the LUNDON-2 program for competition (LUNDON SOFTWARE, Ohio).

[3] = tested on: Vasopressin V2; experiment: Vasopressin V2 Antagonist Activity in Conscious Hydrated Rats; assay type: in vivo, rat; details: 10 mg/kg orally, AVP 0.4 μg/kg i.p.
Outline: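 Four-hour urine output, osmolality and electrolytes (Na+, K+, Cl−) recorded in water-loaded rats (30 mL/kg deionized water orally) given AVP i.p. at 0.4 μg/kg. Test compounds were given orally at 0.1–100 mg/kg 1 h before AVP; 2–4 rats per compound.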

[4] = biological target: T3, oxytocin receptors (Rattus norvegicus, UniProt P70536); experiment: Oxytocin Receptor Binding; details: for IC50: 1.0 nM [3H]oxytocin; for inhibition at 10 µM: [3H]oxytocin
T3 construct: The uteri are dissected out, cleaned of fat and connective tissues; from tissue; host or cells: uterus of DES-treated female Sprague-Dawley rats
T3 sequence (P70536 1-388): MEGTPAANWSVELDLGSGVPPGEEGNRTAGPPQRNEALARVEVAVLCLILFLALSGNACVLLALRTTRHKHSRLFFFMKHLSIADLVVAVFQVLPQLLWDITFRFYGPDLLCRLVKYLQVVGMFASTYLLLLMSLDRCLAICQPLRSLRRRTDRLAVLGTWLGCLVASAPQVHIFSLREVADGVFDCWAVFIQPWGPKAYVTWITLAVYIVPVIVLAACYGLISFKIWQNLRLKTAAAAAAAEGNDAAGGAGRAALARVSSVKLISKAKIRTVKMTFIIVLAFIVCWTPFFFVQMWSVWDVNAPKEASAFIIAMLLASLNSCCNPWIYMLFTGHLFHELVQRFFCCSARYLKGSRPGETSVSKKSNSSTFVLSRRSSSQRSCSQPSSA
Outline: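 IC50 is the concentration displacing 50% of 1.0 nM [3H]OT, incubated 60 min at 22 °C in pH 7.4 Tris/MgCl2 buffer plus protease inhibitors, then filtered. Receptor source: uterine membranes from rats given 0.3 mg/kg DES i.m. 18 h earlier. 1.0 uM cold OT defined non-specific binding.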

T1 sequence (P37288 whole entry): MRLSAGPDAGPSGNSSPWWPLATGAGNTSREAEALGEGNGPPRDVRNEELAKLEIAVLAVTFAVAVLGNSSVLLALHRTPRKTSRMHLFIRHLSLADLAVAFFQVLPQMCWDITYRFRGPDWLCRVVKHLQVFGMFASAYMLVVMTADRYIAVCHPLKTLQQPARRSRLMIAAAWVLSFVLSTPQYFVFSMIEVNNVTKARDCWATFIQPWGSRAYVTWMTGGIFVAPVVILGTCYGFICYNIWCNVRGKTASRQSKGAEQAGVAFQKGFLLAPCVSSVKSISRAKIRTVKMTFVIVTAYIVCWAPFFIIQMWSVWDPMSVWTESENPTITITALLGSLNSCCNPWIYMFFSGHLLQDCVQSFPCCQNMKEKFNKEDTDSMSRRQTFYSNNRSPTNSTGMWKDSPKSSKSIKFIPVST
T2 sequence (P30518 whole entry): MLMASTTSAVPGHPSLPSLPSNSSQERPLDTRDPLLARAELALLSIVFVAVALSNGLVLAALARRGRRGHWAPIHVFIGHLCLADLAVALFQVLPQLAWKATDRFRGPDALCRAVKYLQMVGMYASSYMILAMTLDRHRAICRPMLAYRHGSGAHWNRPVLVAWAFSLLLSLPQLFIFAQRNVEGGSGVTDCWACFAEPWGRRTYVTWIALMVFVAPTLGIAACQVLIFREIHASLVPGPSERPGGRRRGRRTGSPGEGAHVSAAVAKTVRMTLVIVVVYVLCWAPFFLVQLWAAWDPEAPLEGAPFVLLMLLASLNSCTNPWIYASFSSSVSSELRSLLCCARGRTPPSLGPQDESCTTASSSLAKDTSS

| Compound | IC50 [1] [µM] | IC50 [2] [µM] | IC50 [4] [µM] | inhibition at 10 µM [4] [%] | Osmolality [3] [mOsm/kg] | Urine Volume [3] [ml/4 hrs] |
| --- | --- | --- | --- | --- | --- | --- |
| O=C(Nc1ccc(C(=O)N2Cc3ccc(Cl)n3Cc3ccccc32)cc1)c1ccc(Cl)cc1Cl [Example 54, N-[4-(3-Chloro-5H-pyrrolo[2,1-c]-[1,4]benzodiazepin-10(11H)yl-carbonyl)phenyl]-2,4-dichloro-benzamide] | 0.31 | 0.007 | 0.16 | 94 | 1275 | 5 |
| Cc1ccccc1C(=O)Nc1ccc(C(=O)N2Cc3ccnn3Cc3ccccc32)c(Cl)c1 [Example 519, N-[4-(4H-Pyrazolo[5,1-c][1,4]benzodiazepin-5(10H)-ylcarbonyl)-3-chlorophenyl]-2-methylbenzamide] | 0.12 | 0.0032 | 0.48 | 97 | 399 | 19.9 |
| O=C(Nc1ccc(C(=O)N2Cc3ccnn3Cc3ccccc32)c(Cl)c1)c1ccc(Cl)cc1Cl [Example 520, N-[4-(4H-Pyrazolo[5,1-c][1,4]benzodiazepin-5(10H)-ylcarbonyl)-3-chlorophenyl]-2,4-dichlorobenzamide] | 0.85 | 0.0044 | 2.2 | 79 | 394 | 18.5 |

Now from value to compound, other results behind:

| IC50 [1] [µM] | IC50 [2] [µM] | IC50 [4] [µM] | inhibition at 10 µM [4] [%] | Compound | Osmolality [3] [mOsm/kg] | Urine Volume [3] [ml/4 hrs] |
| --- | --- | --- | --- | --- | --- | --- |
| 0.17 | 0.0012 | 1.8 | 84 | CSc1ccccc1C(=O)Nc1ccc(C(=O)N2Cc3cccn3Cc3ccccc32)c(Cl)c1 [Example 524, N-[4-(5H-pyrrolo[2,1-c][1,4]benzodiazepin-10(11H)-ylcarbonyl)-3-chlorophenyl]-2-(thiomethylbenzamide)] | 528 | 10 |
| 0.05 | 0.0033 | 0.47 | 97 | O=C(Nc1ccc(C(=O)N2Cc3cccn3Cc3ccccc32)c(Cl)c1)c1ccccc1Cl [Example 526, N-[4-(5H-pyrrolo[2,1-c][1,4]benzodiazepin-10(11H)-ylcarbonyl]-3-chlorophenyl]-2-chlorobenzamide] | 455 | 17.8 |
| 0.99 | 0.002 | 0.45 | 92 | O=C(Nc1ccc(C(=O)N2Cc3cccn3Cc3ccccc32)c(Cl)c1)c1c(Cl)cccc1Cl [Example 529, N-(4-(5H-pyrrolo[2,1-c][1,4]benzodiazepin-10(11H-)-ylcarbonyl]-3-chlorophenyl]-2,6-dichlorobenzamide] | 569 | 10.5 |
